Measured values taken from US20110003753A1, “COMPOSITIONS AND METHODS FOR DISRUPTING THE FUNCTION OF THE TRANSCRIPTIONAL REPRESSOR COMPONENT Sin3A-PAH2 DOMAIN TO INDUCE DIFFERENTIATION AND GROWTH INHIBITION IN BREAST CANCER” (SAMUEL WAXMAN CANCER RESEARCH FOUNDATION, priority 2009, published 2011).

Assays:
[1] = target: GAL4 DBD-Sin3B (fusion of Sin3B with GAL4 DNA binding domain) (UniProt P04386); assay: cell-based or functional assay
[2] = test system: MDA-MB-231 cells transfected with SID; assay: Proliferation assay (MTT) for ERα and RAR activation; format: cell-based, human; conditions: SID-transfected MDA-MB-231; for growth inhibition (MTT): daily for 48 hrs
From the text: FIG. 5: A. Schematic representations of the promoters and 5′ untranslated regions (5′UTR) of CDH1 and ESR1 used in this study. Positions of CpG dinucleotides are indicated by grey ticks and the transcription initiation sites are represented by black arrows. The relative positions of primer pairs used to PCR amplify immunoprecipitated DNA from ChIP analysis and bisulfite-modified DNA are also indicated. B. H3K4me3 levels on the CDH1 and ESR1 promoter regions increase dramatically in response to SID. ChIP analysis was performed with chromatin from wild type or stably transfected MDA-MB-231 cells as indicated. Cross-linked protein-DNA complexes were immunoprecipitated with an anti-trimethyl H3K4 antibody and amplified by real-time PCR. Results are shown as percentage of input DNA. The RPL30 housekeeping gene is shown as a control. C. Real-time PCR analysis of CDH1 and ESR1 gene expression. Values are shown as molecules per μg total RNA and were derived from the ΔCt between the GAPDH housekeeping gene and the gene of interest. The amount of GAPDH molecules per μg total RNA was determined by absolute quantification. D. The CDH1 and ESR1 promoters undergo demethylation in response to SID. Following bisulfite modification of wild type or stably transfected MDA-MB-231 cells as indicated, specifically amplified PCR products were sequenced using primers corresponding to the promoter/5′UTR of ESR1. Positions of CpG dinucleotides are indicated by grey ticks and the transcription initiation sites are indicated by black arrows. […] Unmethylated CpGs are by represented open circles. CpG positions are shown relative to transcription initiation site. E. Functional assays for ERα and RAR activation. […]
For activation of RARs […] ATRA (all-trans-retinoic acid, pan-RAR agonist) or 100 nM Am580 (retinoibeozoic acid, RARα-specific agonist) was used daily for 48 hours. Cell proliferation was determined by MTT (Thiazolyl Blue Tetrazolium Bromide) colorimetric assay following standard protocols (Invitrogen). The optical density (OD) of reduced MTT was assessed at 570 nm versus 620/630 nm after 4 hr at 37° C. […]

[3] = test system: Sin3B and MAD; assay: Mammalian two-hybrid assay, GAL4 DBD-Sin3B and VP16AD-MAD in 293T cells; format: cell-based; conditions: 15 μM peptide applied to the cell culture medium
From the text: FIG. 2: SID decoy peptide blocks interactions between Sin3 PAH2 and MAD and interferes with recruitment of members of the Sin3 co-repressor complex. A. GST pull-down of MAD by the Sin3A PAH2 domain is blocked by SID peptide. Sin3A PAH2 domain (amino acids 306-450) was expressed in E. coli as a GST fusion and used in a pull down assay for in vitro interaction with 35S-methionine labeled MAD (left panel) or MAD immunoprecipitated from MDA-MB-231 cell lysates (right panel). 25% of input is shown for in vitro translated MAD and 10% of input for immunoprecipitated MAD (input). Assays were performed using 15 μM Tat-SID or Tat-SID^SCR peptide unless otherwise indicated. […] 293T cells were transfected with GAL4^uas×5-Tk-Luc reporter together with mammalian two-hybrid vectors expressing a fusion of Sin3B with GAL4 DNA binding domain (GAL4^DBD) and fusions of MAD and HDAC1 (columns 5-12 and 14-21, respectively) with VP16 activation domain (VP16^AD), as well as SID expression vectors, as indicated. […]
24 hours prior to transfection, 293T cells were plated at 50-60% confluence on 48-well plates. […] 48 hours post-transfection luciferase activity was measured using the Dual Luciferase assay system (Promega) on a Mithras LB940 plate reader (Berthold Technologies). […]

[4] = test system: MDA-MB-231 cells; assay: Three-dimensional morphogenesis assay in Matrigel; format: cell-based, human; conditions: 5 μM peptide; Matrigel 3D culture; colonies counted after 10 days of treatment
Protocol: FIG. 3: A. Morphogenesis in 3D cultures in Matrigel. MDA-MB-231 and MMTV-Myc cells expressing SID or the double mutant were cultured in 3D-Matrigel for 14 days. […] B. Reversion of the invasive phenotype of the MDA-MB-231 cells in Matrigel 3D cultures. Upper panel indicates change in numbers of invasive versus non invasive colonies (as indicated in crosshatched and non-crosshatched bars, respectively) in the presence of different concentrations (as indicated) of cell penetrating SID or SID^SCR (scrambled control) peptide. The colonies were counted after 10 days of treatment with a medium containing fresh peptide changed every 24 hours. […] The reduction in invasive phenotype was quantified by counting 5 low magnification fields per well done in triplicates (upper panel). The p value was calculated using the unpaired Student t test.
3D cultures of MDA-MB-231 and MMTV-Myc cells stably transfected with pEGFP-SID, pEGFP-SID2Mut or the parent vector pEGFP-N3 were prepared as described by Debnath et al. (Debnath et al2003). Briefly, […] of growth factor depleted Matrigel (BD Biosciences) was applied on 8-well multichamber slides (BD Biosciences) and incubated at 37° C. for 30 minutes. Once the Matrigel solidified 5×10^3 cells were seeded on top of the gels in assay medium containing 2% Matrigel and 20 ng/ml […]. Growth medium was changed daily for 14 days. Once colony formation was evident, the SID or the scramble control peptide was added to the MDA-MB-231 parental cells in the medium starting at day 3. The morphology of the colonies was determined by confocal microscopy. Induction of apoptosis was determined by staining colonies with activated caspase-3 antibody (BD Transduction Labs) and cell polarization by staining with anti-GM130 antibody (BD Transduction Labs). Cell nuclei were visualized by DAPI (Sigma) staining. […]

GAL4 DBD-Sin3B (fusion of Sin3B with GAL4 DNA binding domain), sequence (P04386 1-147): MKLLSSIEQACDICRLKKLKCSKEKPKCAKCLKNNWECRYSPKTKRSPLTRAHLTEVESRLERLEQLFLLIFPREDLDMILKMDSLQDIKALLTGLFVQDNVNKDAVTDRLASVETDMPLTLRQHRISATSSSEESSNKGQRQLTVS

Work on “FLAG-tagged SID (6.6 kDa), expressed from pSID (peptide)” yielded a relative luciferase activity, mammalian two-hybrid with GAL4 DBD-Sin3B and VP16AD-MAD (fold increase) [1] of 2.
With “TetR-SID fusion (28.4 kDa), expressed from pTHE” the relative luciferase activity, mammalian two-hybrid with GAL4 DBD-Sin3B and VP16AD-MAD (fold increase) [1] was 2.
For `CC/C(=C(\c1ccccc1)c1ccc(OCCN(C)C)cc1)c1ccccc1` [tamoxifen], the “prevention of E2 growth stimulation (MTT)” value ([2]; 2.5 μM tamoxifen plus E2) was “prevention of E2 growth stimulation”.
For AM580, the “growth inhibition (MTT)” value ([2]; 100 nM) was “significant growth inhibition”.
“VP16AD-MAD (VP16 activation domain as in-frame fusion with full-length MAD) (from UniProt Q05195 1-221)” was tested, and the relative luciferase activity, mammalian two-hybrid (GAL4UASx5-Tk-Luc reporter, 293T cells) (fold decrease) [1] was 5.
For “YGRKKRRQGGGEQRARRIMERLLEYNMVADL [scrambled control, reference compound]”, the “increase in luciferase activity compared to GAL4 DBD-Sin3B and VP16AD-MAD co-expression” value [3] was “nor addition of scrambled control peptide led to an increase in luciferase activity” and the “decrease in number of colonies with invasive phenotype” value [4] was “did not exert this effect”.
With `CC1=C(/C=C/C(C)=C/C=C/C(C)=C/C(=O)O)C(C)(C)CCC1` [ATRA, all-trans-retinoic acid] the “growth inhibition (MTT)” value ([2]; 1 uM) was “significant growth inhibition”.
